Experimental data from patent US7273723B2, “Antibiotic-based gene regulation system” (priority 2001, dated 2007).

Columns and labels:
ET1/PETR3 = test: Dose-response of EM-dependent SEAP expression in stable CHO-ET11-SEAP; format: cell-based, Chinese hamster ovary cells; details: 48 h
Protocol: The cell line CHO-ET1-SEAP1 was grown for 48 h at different EM concentrations (ng/ml). The relative SEAP production is shown over 5 orders of magnitude of EM concentration.
(§1) Chinese hamster ovary cells (CHO-K1, ATCC: CCL 61), and HeLa cells (ATCC: CRL-7923) as well as stable cell lines derived thereof were cultured as described before (Fussenegger et al., 1998, Nat. Biotechnol. 16,468-472) in the presence of appropriate antibiotics: G418 400 μg/ml; zeocin 100 μg/ml. Optimized CaPO4 protocols were used for high efficiency transient transfection of all cell lines (Fussenegger et al., 1998. Nat. Biotechnol. 16: 468-472). Transiently transfected cells were routinely analyzed after 48 h for CFP or SEAP expression using fluorescence microscopy and p-nitrophenolphosphate-based light absorbance timecourse, respectively, as described before (Fussenegger et al., 1998, Nat. Biotechnol. 16, 468-472; Berger et al., 1988, Gene 66, 1-10 b). For construction of stable CHO-ET1 and CHO-Triplet42 cell lines, CHO-Ki and CHO-TWIN1108 (Disclosed in PCT application no. 00/65080) were cotransfected with pWW35 and pZeoSV2 (invitrogen). CHO-ET11-SEAP was constructed by cotransfection of pWW38 and pSV2neo (Clontech) into CHO-ET11. The mixed populations were cloned using FACS-mediated single-cell-sorting (FACStar^Plus; Beckton Dickinson). For assessment of dose-response characteristics of PETR3-regulated gene expression, CHO-ET11-SEAP were cultured at cell densities of 50,000/ml for 48 h at various EM concentrations.
Varying the concentrations of EM used for induction could control the levels of PETR3-regulated gene expression. This was assessed using a stable CHO cell line (CHO-ET11-SEAP) which expresses PETR3-SEAP (pWW38) and stably contains also a constitutive ET1 expression vector (pWW35). […] Increasing EM concentration above 10 ng/ml leads to a gradual decrease in SEAP expression, with lowest SEAP expression levels at EM concentrations over 1000 ng/ml. […]

CHO cells = test: CHO cell morphology and growth in the presence of EM; format: cell-based, Chinese hamster; details: EM 2 μg/ml
[1] = system: ET1/PETR3 positive feedback expression unit; test: Autoregulated pWW46 (PETR3-CFP-IRES-ET1-pA) CFP expression by fluorescence microscopy; format: cell-based; details: pWW46 in CHO-K1, HeLa, COS-7 or HEK 293-T cells; erythromycin 2 μg/ml
Description: These positive feedback regulation vectors that were constructed contain both the cyan fluorescent protein CFP and ET1 in a dicistronic, PETR3-driven configuration.

[2] = target: T1, tTA / tetracycline-responsive promoter PhCMV*-1 (Escherichia coli, UniProt P04483); test: SEAP assay in CHO-Triplet42 transfected with PhCMV*-1-SEAP (pMF111); format: cell-based; details: CHO-Triplet42 + pMF111 (PhCMV*-1); antibiotic 2 μg/ml; 48 h
T1 construct: expressed in transfected cells; host or cells: CHO-Triplet42 (from CHO-TWIN1108)
Protocol: as §1
Other antibiotics were eluted from antibiotic test discs (Mast Diagnostica GmbH, Reinfeld, Germany, or bioMérieux, Geneva Switzerland) in cell culture medium at 37° C. for 12 h to reach a final concentration of 30 μg/ml. All macrolide antibiotics were used at a 2 μg/ml concentration unless indicated otherwise.

[3] = system: transrepressors MphR(A) or ET4 (MphR(A)-KRAB) / PETRON promoters; test: Erythromycin-inducible EON system, SEAP assay in transiently cotransfected CHO-K1; format: cell-based; details: for SEAP activity [U/L] +Erythromycin [2 μg/ml]: CHO-K1, 48 hrs, title: erythromycin (2 μg/ml)
Description: The classical ET/PETR system belongs to the “OFF” family of regulation concepts since gene expression is activated upon withdrawal of the regulating antibiotic. However, in some applications such as gene therapy and tissue engineering an “ON” system that is induced upon addition of macrolide antibiotics is more desirable. We therefore constructed a new MphR(A)-based binary EON system which consists of a PETRON promoter and a set of two different transrepressors. Two different PETRON promoters were constructed: PETRON4 consists of an ETR4 (four tandem repetitions of ETR, SEQ ID NO 26) placed downstream of the strong viral SV40 promoter. PETRON8 contains eight tandem repetitions (SEQ ID NO 27) of ETR instead of four.
Transrepressors such as ET4 (SEQ ID NO 10, example 1, FIG. 2), which consists of a protein fusion between MphR(A) and the KRAB silencing domain of the human kox-1 gene (Deuschle et al., 1995, Mol. Cell Biol. 15: 1907-1914) or MphR(A) alone, bind to ETR in front of PSV40 and block transcription of this promoter. Besides sterical transcription blocking, the silencing domain of ET4 can additionally downregulate PSV40 activity.
The ETR4 sequence (SEQ ID NO: 26) was excised from the WEBE Gene vector (custom synthesized by Operon Technologies Inc.) by SfuI and EcoRI and ligated into the corresponding sites of pMF208 (Fussenegger et al., 2000. supra) thus resulting in plasmid pWW55 (FIG. 7) containing the PSV40-ETR4-SEAP cassette. The combination of PSV40 and ETR4 is designated PETRON4. For construction of PETRON8, ETR4 was excised (PmeI/EcoRI) from pWW55 and cloned into pWW55 restricted with (EcoRV/EcoRI) thus resulting in SV40-ETR8-SEAP (pWW56).
ET4, the MphR(A)-KRAB fusion protein was constructed as described in example 1 (SEQ ID NO 10). For expression of MphR(A) pWW29 (SEQ ID NO 4) was used. The stop codon of the original MphR(A) has been mutated in order to allow fusion to the various transactivating and transrepressing domains. Because of the mutation of this stop codon the mphR(A) gene contained in pWW29 is terminated a few bp downstream at the next stop codon encountered in the vector sequence. However, the resulting MphR(A) protein preserves its role as transcriptional repressor in the EON configuration.
The regulation performance of PETRON4 (PSV40-ETR4-SEAP-pA; pWW55) and PETRON8 (PSV40-ETR8-SEAP-pA; pWW56) was assessed in CHO-K1 cells harboring the MphR(A) expression vector pWW29 (PEF1α-E-pA) (Table 7).

T1 sequence (P04483 whole entry, added parts left off): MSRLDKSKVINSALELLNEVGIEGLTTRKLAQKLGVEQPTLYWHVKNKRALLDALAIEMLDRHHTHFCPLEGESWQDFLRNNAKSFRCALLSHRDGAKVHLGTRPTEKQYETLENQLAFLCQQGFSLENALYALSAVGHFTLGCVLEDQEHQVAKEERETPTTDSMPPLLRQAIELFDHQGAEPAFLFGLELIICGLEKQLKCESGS

CC[C@H]1OC(=O)[C@H](C)[C@@H](O[C@H]2C[C@@](C)(OC)[C@@H](O)[C@H](C)O2)[C@H](C)[C@@H](O[C@@H]2O[C@H](C)C[C@H](N(C)C)[C@H]2O)[C@](C)(O)C[C@@H](C)C(=O)[C@H](C)[C@@H](O)[C@]1(C)O [Erythromycin]
EM concentration at which ET1/PETR3 is fully induced (ET1/PETR3): < 10 ng/mL
EM concentration at which ET1/PETR3 is repressed (lowest SEAP expression) (ET1/PETR3): > 1000 ng/mL
EM concentration window in which gene expression can be adjusted to different levels (ET1/PETR3): 10 to 1000 ng/mL
Effects on CHO cell morphology and growth (CHO cells): No deleterious effects
CFP-expression (fluorescence microscopy) [1]: completely repressed
SEAP activity [U/L] [2]: 195.1 ± 15.1 U/L
SEAP activity [U/L] +Erythromycin [2 μg/ml] ([3]; PETR-ON4 + ET4): 35.7 ± 4.7 U/L
SEAP activity [U/L] +Erythromycin [2 μg/ml] ([3]; PETR-ON4 + MphR(A)): 175.7 ± 6.2 U/L
Induction factor (expression in induced state to expression in repressed state) ([3]; PETR-ON4 repressed by MphR(A)): ~5
SEAP activity [U/L] +Erythromycin [2 μg/ml] ([3]; PETR-ON8 + ET4): 55.4 ± 1.8 U/L
SEAP activity [U/L] +Erythromycin [2 μg/ml] ([3]; PETR-ON8 + MphR(A)): 81.6 ± 4.3 U/L
Induction factor (expression in induced state to expression in repressed state) ([3]; PETR-ON8 repressed by MphR(A)): ~5
